Laboratory results published in patent US11912693B2, “Compounds for modulating S1P1 activity and methods of using the same” (TREVENA, INC., priority 2017, dated 2024).

How the values were obtained:
[1] = target: T1, human sphingosine-1-phosphate receptor 1 (S1P1) (Homo sapiens (Human), UniProt P21453); experiment: β-Arrestin2 recruitment assay (PathHunter), S1P1 CHO-K1 cells; format: cell-based; details: for Emax: CHO-K1, efficacy (SPAN) normalized to fingolimod, read-out: hS1P1 B-arrestin2 SPAN; for hS1P1 B-arrestin2 pEC50: β-arrestin2 recruitment, S1P1 CHO-K1 cells
In short: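 Enzyme-fragment complementation read-out: agonist-driven β-arrestin2 binding to ProLink-tagged human S1P1 in stable CHO-K1 cells restores β-galactosidase, measured 1 h at room temperature after a 60 min 37° C. compound incubation. Potency as pEC50, efficacy relative to fingolimod (SPAN).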
Target sequence in this assay (P21453 whole entry, looked up, the tested form may be a part): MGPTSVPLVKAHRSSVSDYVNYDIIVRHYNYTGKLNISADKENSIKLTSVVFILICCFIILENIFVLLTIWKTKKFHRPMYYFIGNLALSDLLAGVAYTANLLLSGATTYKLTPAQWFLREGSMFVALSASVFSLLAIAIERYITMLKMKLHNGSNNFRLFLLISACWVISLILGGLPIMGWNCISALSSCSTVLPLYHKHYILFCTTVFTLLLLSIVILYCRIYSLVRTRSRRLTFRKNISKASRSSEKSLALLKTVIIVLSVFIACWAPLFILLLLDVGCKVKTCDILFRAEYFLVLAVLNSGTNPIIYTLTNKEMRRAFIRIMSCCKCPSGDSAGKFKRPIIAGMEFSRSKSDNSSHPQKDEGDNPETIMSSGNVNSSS
Target sequence in this assay (P32121 whole entry partner, looked up, the tested form may be a part): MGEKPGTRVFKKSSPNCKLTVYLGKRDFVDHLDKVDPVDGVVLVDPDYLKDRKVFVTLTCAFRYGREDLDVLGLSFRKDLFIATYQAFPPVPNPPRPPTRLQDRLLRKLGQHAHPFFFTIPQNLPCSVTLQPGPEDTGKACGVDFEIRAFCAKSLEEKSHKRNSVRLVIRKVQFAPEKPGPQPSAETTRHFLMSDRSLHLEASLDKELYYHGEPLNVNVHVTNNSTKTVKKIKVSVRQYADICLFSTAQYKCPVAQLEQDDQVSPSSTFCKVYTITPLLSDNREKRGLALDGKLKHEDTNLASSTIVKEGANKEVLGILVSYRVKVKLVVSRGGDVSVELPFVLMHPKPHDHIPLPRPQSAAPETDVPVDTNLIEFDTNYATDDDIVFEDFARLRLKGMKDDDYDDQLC

[2] = test system: paclitaxel induced peripheral neuropathy; experiment: Reversal of allodynia induced by paclitaxel in mice (s.c. or p.o., von Frey frequency method); format: in vivo, c57bl/6 mice; details: Mus musculus; for inhibition in vivo at 1 mg/kg: sc, 0.5 h, 1 mg/kg s.c., tested 30 min after dosing, read-out: Screen @ 1 mg/kg sc (% MPE); for inhibition in vivo at 3 mg/kg: po, 1 h, 3 mg/kg p.o., tested 60 min after dosing, read-out: Screen @ 3 mg/kg po (% MPE)
In short: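 Neuropathy was induced in mice by paclitaxel (6 mg/kg i.p., days 1, 3, 5, 7) or oxaliplatin (4 mg/kg i.p., days 1-5), with re-testing about 14 days later. Compounds were given s.c. (tested at 30 min) or p.o. (tested at 60 min; paclitaxel only). A 0.4 g von Frey filament was applied ten times per paw, and % non-response was converted to % MPE.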

[3] = test system: peripheral blood lymphocytes; experiment: Peripheral blood lymphocytes (lymphopenia) in c57bl/6 mice, acute and chronic studies; format: in vivo; details: for Lymphopenia: Effect and Doses, mg/kg, sc: peripheral blood lymphocytes vs vehicle; for Lymphopenia: Effect and Doses, mg/kg, sc (change in peripheral blood lymphocytes): significance vs vehicle given
Procedure: Compounds were tested for changes in peripheral blood lymphocytes in c57bl/6 mice. In acute studies, animals (n=5/group) were dosed subcutaneously with test compound at a dose of 3 mg/kg. Animals were sacrificed at specific time points and 500 μl of whole blood was collected in EDTA (K2) Eppendorf tubes. Blood was stored on ice and shipped immediately overnight delivery to Charles River Laboratories for analysis. CRL ran samples through their WBC/differential panel on an Advia 120 instrument. We received peripheral lymphocyte counts (10^3 cells/μl) for each blood sample. Treatment group means were compared to a vehicle treatment group for statistical significance. In chronic studies, animals (n=6-8/group) were dosed subcutaneously with test compound either in a dose response paradigm (highest dose of 3 mg/kg) or in a screening paradigm at 6 mg/kg for seven days. On the seventh day, animals were sacrificed 45 minutes after the final dose. Whole blood was collected and analyzed as described for acute studies. […]

[4] = target: T1, human sphingosine-1-phosphate receptor 1 (S1P1); experiment: Inhibition of cAMP production (HTRF cAMP HiRange), S1P1 CHO-K1 cells; format: cell-based; details: for Emax: CHO-K1, efficacy (SPAN) normalized to fingolimod, read-out: hS1P1 cAMP SPAN; for hS1P1 cAMP pEC50: inhibition of cAMP production, S1P1 CHO-K1 cells
In short: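 CHO-K1 cells stably co-expressing human S1P1 (C-terminal Prolink tag) and EA-β-arrestin2 were grown in AssayComplete Media 6 at 37° C. and 5% CO2, plated, and incubated overnight. Agonist-driven inhibition of intracellular cAMP was read by TR-FRET with the HTRF cAMP HiRange kit on a PheraStar reader. Potency is pEC50, and efficacy (SPAN) is normalized to fingolimod.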
Target sequence in this assay (P21453 whole entry, looked up, the tested form may be a part): as the sequence (P21453 whole entry, looked up, the tested form may be a part) above

[5] = target: human sphingosine-1-phosphate receptor 3 (S1P3) (Homo sapiens (Human), UniProt Q99500); experiment: Inhibition of cAMP production (HTRF), S1P3 CHO-K1 cells; format: cell-based; details: inhibition of cAMP production, hS1P3
Chain of human sphingosine-1-phosphate receptor 3 (S1P3) (Q99500 whole entry): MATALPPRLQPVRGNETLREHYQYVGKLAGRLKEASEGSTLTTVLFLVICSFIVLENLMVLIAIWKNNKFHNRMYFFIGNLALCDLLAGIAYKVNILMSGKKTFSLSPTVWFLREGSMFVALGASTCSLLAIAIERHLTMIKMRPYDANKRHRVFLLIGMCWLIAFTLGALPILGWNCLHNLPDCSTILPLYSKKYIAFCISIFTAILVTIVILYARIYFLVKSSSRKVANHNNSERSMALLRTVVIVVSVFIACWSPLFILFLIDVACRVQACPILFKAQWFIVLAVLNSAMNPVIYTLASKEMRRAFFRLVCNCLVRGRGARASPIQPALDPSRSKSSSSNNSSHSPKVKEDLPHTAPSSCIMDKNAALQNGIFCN
Procedure: (§1) Stable clonal Chinese hamster ovary K1 (CHO-K1) cells co-expressing EA-β-arrestin2 and the human sphingosine-1-phosphate receptor 2 (NM_004230.3, S1P2), human sphingosine-1-phosphate receptor 3 (NM_005226, S1P3) and sphingosine-1-phosphate receptor 5 (NM_001166215.1, S1P5) with a C-terminal Prolink™ tag were purchased from DiscoverX corporation (S1P2: Cat #93-0256C2, S1P3: Cat #93-0217C2, S1P5: Cat #93-0583C2).
(§2) Cell lines were cultured in AssayComplete™ Media 6 (DiscoverX Corporation, Cat #: 920018GF2) at 37° C. and 5% CO2 in a humidified CO2 and temperature-controlled incubator. To begin assay plating, cells were washed with dulbecco's phosphate buffered saline (CellGro, Cat #: 21-031-CV) and lifted from the culturing flask by incubation (37° C., 5 min) with CellStripper (Cellgro, Cat #: 25-056-CI). […] Plated cells were incubated overnight at 37° C. and 5% CO2 in a humidified CO2 and temperature-controlled incubator.
(§3) S1P3 and S1P5 Agonist-promoted G-protein responses were determined by measuring changes in intracellular cAMP using the HTRF® cAMP HiRange kit (CisBio, Cat #: 62AM6PEJ) based on time-resolved fluorescence resonance energy transfer (TR-FRET) technology. […] Following a 30-minute room temperature incubation the components of the cAMP HiRange kit were added as per the manufacturer's instructions. After an hour incubation at room temperature, plates were analyzed by a BMG PheraStar microplate reader.
(§4) The tables below include the efficacy of the compound as compared to a positive control, referred to as “SPAN”. These values are normalized to fingolimod, a known agonist of the sphingosine-1-phosphate 3 and 5 receptor or CYM5520, a known agonist of the sphingosine-1-phosphate 2 receptor. The tables also include potency values (pEC50) for modulating discrete receptor-mediated activities (inhibition of cAMP production or inositol monophosphate accumulation).

[6] = target: human sphingosine-1-phosphate receptor 2 (S1P2) (Homo sapiens (Human), UniProt O95136); experiment: Inositol monophosphate production (IP-one TB kit), S1P2 CHO-K1 cells; format: cell-based; details: inositol monophosphate accumulation, hS1P2
Chain of human sphingosine-1-phosphate receptor 2 (S1P2) (O95136 whole entry): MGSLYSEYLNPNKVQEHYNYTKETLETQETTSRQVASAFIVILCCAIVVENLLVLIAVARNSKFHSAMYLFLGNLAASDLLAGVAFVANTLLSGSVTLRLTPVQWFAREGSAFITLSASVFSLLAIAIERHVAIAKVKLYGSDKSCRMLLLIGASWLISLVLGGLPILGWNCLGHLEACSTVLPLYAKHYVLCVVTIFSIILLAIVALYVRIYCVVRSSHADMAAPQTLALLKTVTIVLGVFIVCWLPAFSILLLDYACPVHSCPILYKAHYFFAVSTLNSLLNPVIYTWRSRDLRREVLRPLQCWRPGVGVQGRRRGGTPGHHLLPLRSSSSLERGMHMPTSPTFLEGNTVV
Procedure: as §1, §2
S1P2 Agonist-promoted G-protein responses were determined by measuring changes in intracellular inositol monophosphate using the IP-one TB kit (CisBio, Cat #: 62IPAPEJ) based on time-resolved fluorescence resonance energy transfer (TR-FRET) technology. AssayComplete™ Cell Plating 2 Reagent was removed and replaced with 1× IP-one stimulation buffer (as per manufacturer's instructions) along with test or control compounds at the desired concentrations. Following a 60-minute incubation at 37° C. and 5% CO2 in a humidified CO2 and temperature-controlled incubator, the components of the IP-one TB kit were added as per the manufacturer's instructions. After an hour incubation at room temperature, plates were analyzed by a BMG PheraStar microplate reader.
as §4

[7] = target: sphingosine-1-phosphate receptor 5 (S1P5) (Homo sapiens (Human), UniProt Q9H228); experiment: Inhibition of cAMP production (HTRF), S1P5 CHO-K1 cells; format: cell-based; details: inhibition of cAMP production, hS1P5
Chain of sphingosine-1-phosphate receptor 5 (S1P5) (Q9H228 whole entry): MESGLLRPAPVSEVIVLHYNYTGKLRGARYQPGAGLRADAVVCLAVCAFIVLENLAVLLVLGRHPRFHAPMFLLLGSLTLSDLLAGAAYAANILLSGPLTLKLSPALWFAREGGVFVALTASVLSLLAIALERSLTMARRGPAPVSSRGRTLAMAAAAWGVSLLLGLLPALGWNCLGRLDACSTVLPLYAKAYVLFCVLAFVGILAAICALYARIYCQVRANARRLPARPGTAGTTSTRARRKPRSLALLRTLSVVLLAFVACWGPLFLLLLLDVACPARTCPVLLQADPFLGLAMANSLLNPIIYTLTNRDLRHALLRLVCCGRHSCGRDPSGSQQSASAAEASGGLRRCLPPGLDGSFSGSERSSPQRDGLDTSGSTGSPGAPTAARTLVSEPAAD
Procedure: as §1, §2, §3, §4

hERG channel = hERG channel (Homo sapiens (Human), UniProt Q12809); experiment: Automated Qpatch patch-clamp hERG assay
Chain of hERG channel (Q12809 whole entry): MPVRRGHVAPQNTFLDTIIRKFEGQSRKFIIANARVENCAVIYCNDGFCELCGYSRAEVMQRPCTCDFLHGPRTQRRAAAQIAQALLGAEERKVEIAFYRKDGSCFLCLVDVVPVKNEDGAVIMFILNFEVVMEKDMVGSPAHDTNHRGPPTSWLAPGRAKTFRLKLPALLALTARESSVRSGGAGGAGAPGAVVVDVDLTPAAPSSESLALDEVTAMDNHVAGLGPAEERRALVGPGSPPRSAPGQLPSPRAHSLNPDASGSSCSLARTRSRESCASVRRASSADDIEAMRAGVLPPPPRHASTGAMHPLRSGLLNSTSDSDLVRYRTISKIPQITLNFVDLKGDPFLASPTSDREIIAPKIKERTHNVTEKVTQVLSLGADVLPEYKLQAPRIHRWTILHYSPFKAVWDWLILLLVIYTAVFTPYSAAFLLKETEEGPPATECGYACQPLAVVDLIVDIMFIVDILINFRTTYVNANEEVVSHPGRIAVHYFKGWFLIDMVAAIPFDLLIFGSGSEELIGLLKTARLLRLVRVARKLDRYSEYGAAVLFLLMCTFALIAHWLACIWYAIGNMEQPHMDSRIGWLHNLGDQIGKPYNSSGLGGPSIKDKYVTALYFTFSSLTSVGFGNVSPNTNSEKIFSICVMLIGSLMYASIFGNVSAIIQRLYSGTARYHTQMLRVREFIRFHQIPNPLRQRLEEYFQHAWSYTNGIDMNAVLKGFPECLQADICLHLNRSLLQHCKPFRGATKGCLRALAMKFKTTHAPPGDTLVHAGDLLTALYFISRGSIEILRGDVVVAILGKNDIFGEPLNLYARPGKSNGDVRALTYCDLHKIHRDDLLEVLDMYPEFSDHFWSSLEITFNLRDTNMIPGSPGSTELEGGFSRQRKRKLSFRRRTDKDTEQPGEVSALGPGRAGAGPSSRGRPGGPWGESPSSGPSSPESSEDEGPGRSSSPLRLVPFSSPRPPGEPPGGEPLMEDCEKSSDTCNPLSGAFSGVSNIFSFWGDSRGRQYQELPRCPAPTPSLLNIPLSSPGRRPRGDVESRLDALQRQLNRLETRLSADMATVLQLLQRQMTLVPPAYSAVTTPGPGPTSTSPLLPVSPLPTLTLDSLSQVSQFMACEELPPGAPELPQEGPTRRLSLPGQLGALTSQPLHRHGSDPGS

| SMILES | hS1P1 B-arrestin2 pEC50 [1] | Lymphopenia: Effect and Doses, mg/kg, sc ([3]; 6 mg/kg sc, 7 days) | hS1P1 cAMP pEC50 [4] | inhibition in vivo at 3 mg/kg [2] | also measured |
| --- | --- | --- | --- | --- | --- |
| Cc1cnccc1-c1nc(-c2ccc3c(c2)nnn3C(C)C)no1 [Compound 8, 3-(1-isopropyl-1H-benzo[d][1,2,3]triazol-5-yl)-5-(3-methylpyridin-4-yl)-1,2,4-oxadiazole] | <5 | no change: 6 mg/kg, 7 days | <6.5 | – | Emax [1]: < 75%; inhibition in vivo at 1 mg/kg [2]: < 50%; Emax [4]: < 75% |
| COc1cccc(-c2noc(-c3ccc4c(c3)nnn4C(C)C)n2)n1 [Compound 19, 5-[3-(6-methoxypyridin-2-yl)-1,2,4-oxadiazol-5-yl]-1-(propan-2-yl)-1H-1,2,3-benzotriazole] | >5 | no change: 6 mg/kg, 7 days | <6.5 | – | – |
| CC(C)Oc1ccc(-c2nc(-c3ccc4c(c3)nnn4C(C)C)no2)cc1C#N [Compound 22, 2-isopropoxy-5-(3-(1-isopropyl-1H-benzo[d][1,2,3]triazol-5-yl)-1,2,4-oxadiazol-5-yl)benzonitrile] | – | – | – | – | Lymphopenia: Effect and Doses, mg/kg, sc ([3]; 3 mg/kg sc, 7 days): no change: 3 mg/kg, 7 days |
| CC(C)n1nnc2cc(-c3nc(-c4cccc5c4OCO5)no3)ccc21 [Compound 32, 3-(benzo[d][1,3]dioxol-4-yl)-5-(1-isopropyl-1H-benzo[d][1,2,3]triazol-5-yl)-1,2,4-oxadiazole] | >5 | no change: 6 mg/kg, 7 days | >6.5 | – | hS1P3 cAMP pEC50 [5]: <5.0; hS1P2 IP-one pEC50 [6]: <5.0; hS1P5 cAMP pEC50 [7]: <5.0 |
| Cc1ccccc1-c1noc(-c2ccc3c(c2)nnn3C(C)(C)C)n1 [Compound 59, 1-tert-butyl-5-[3-(2-methylphenyl)-1,2,4-oxadiazol-5-yl]-1H-1,2,3-benzotriazole] | >5 | no change: 6 mg/kg, 7 days | >6.5 | – | – |
| Cc1ccccc1-c1noc(-c2ccc3c(c2)nnn3CC(C)C)n1 [Compound 96, 5-[3-(2-methylphenyl)-1,2,4-oxadiazol-5-yl]-1-(2-methylpropyl)-1H-1,2,3-benzotriazole] | >5 | no change: 6 mg/kg, 7 days | >6.5 | – | Emax [1]: > 75%; inhibition in vivo at 1 mg/kg [2]: > 50%; Emax [4]: > 75% |
| Cc1cnc(-c2nc(-c3ccc4c(c3)nnn4C(C)C)no2)cn1 [Compound 234, 3-(1-isopropyl-1H-benzo[d][1,2,3]triazol-5-yl)-5-(5-methylpyrazin-2-yl)-1,2,4-oxadiazole] | <5 | no change: 6 mg/kg, 7 days | <6.5 | – | – |
| CC(F)(F)CNc1ccc(-c2nnc(-c3ccc4[nH]ncc4c3)o2)cc1C#N [Compound 355, 2-[(2,2-difluoropropyl)amino]-5-[5-(1H-indazol-5-yl)-1,3,4-oxadiazol-2-yl]benzonitrile] | >5 | no change: 6 mg/kg, 7 days | >6.5 | > 50% | – |
| CC(C)Nc1ccc(-c2nnc(-c3ccc4[nH]cnc4c3)o2)cc1C#N [Compound 356, 5-[5-(1H-1,3-benzodiazol-5-yl)-1,3,4-oxadiazol-2-yl]-2-[(propan-2-yl)amino]benzonitrile] | >5 | no change: 6 mg/kg, 7 days | >6.5 | > 50% | Emax [1]: > 75%; Emax [4]: > 75% |
| CN1C(=O)CCc2cc(-c3nc(-c4cccnc4)no3)ccc21 [Compound 384, 1-methyl-6-[3-(pyridin-3-yl)-1,2,4-oxadiazol-5-yl]-1,2,3,4-tetrahydroquinolin-2-one] | <5 | – | <6.5 | – | Lymphopenia: Effect and Doses, mg/kg, sc ([3]; acute, 3 mg/kg sc, 45 min and 2 hr): no change: 3 mg/kg; 45 min and 2 hr |
| N#Cc1cc(-c2nc(-c3ccc4oc(=O)[nH]c4c3)no2)ccc1NCC1CC1 [Compound 423, 2-((cyclopropylmethyl)amino)-5-(3-(2-oxo-2,3-dihydrobenzo[d]oxazol-5-yl)-1,2,4-oxadiazol-5-yl)benzonitrile] | >5 | no change: 6 mg/kg, 7 days | >6.5 | > 50% | hS1P3 cAMP pEC50 [5]: >5.0; hS1P2 IP-one pEC50 [6]: >5.0 |
| CCC1(CC)CC(=O)c2cc(-c3nc(-c4ccc(NC(C)=O)cc4OC)no3)ccc2O1 [Compound 531, N-{4-[5-(2,2-diethyl-4-oxo-3,4-dihydro-2H-1-benzopyran-6-yl)-1,2,4-oxadiazol-3-yl]-3-methoxyphenyl}acetamide] | >5 | no change: 6 mg/kg, 7 days | >6.5 | > 50% | – |
| COc1cc(NC(C)=O)ccc1-c1noc(-c2ccc(NC(C)C)c(C#N)c2)n1 [Compound 731, N-[4-(5-{3-cyano-4-[(propan-2-yl)amino]phenyl}-1,2,4-oxadiazol-3-yl)-3-methoxyphenyl]acetamide] | – | – | – | > 50% | Lymphopenia: Effect and Doses, mg/kg, sc (change in peripheral blood lymphocytes) ([3]; 6 mg/kg sc, 7 days): −78% stat sig: 6 mg/kg, 7 days |
| CC(C)Nc1ccc(-c2ncc(-c3cccnc3)cn2)cc1C#N [Compound 737, 2-(isopropylamino)-5-(5-(pyridin-3-yl)pyrimidin-2-yl)benzonitrile] | – | – | – | – | Lymphopenia: Effect and Doses, mg/kg, sc (change in peripheral blood lymphocytes) ([3]; 6 mg/kg sc, 7 days): −40% not stat sig: 6 mg/kg, 7 days |
| CC(C)Oc1ccc(-c2ncc(-c3cccnc3)cn2)cc1C#N [Compound 738, 2-isopropoxy-5-(5-(pyridin-3-yl)pyrimidin-2-yl)benzonitrile] | – | – | – | – | IC50 (hERG channel): > 10 µM |
